Measurements as given in patent US20230233569A1 (Revolution Medicines, Inc., priority 2020, published 2023).

Tests used:
[1] = tested on: K-Ras G12C (NCI-H358 cells); assay: Potency assay: pERK (AlphaLISA SureFire or In-Cell Western); type: cell-based; conditions: Homo sapiens, NCI-H358; H358 KRAS G12C; read-out: pERK EC50
In short: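 Cellular pERK decrease measured after 4 h compound exposure (37 °C, 5% CO2) of NCI-H358 cells, 10-point 3-fold series from 10 mM DMSO stock, duplicates. Detection either by In-Cell Western (IR-800CW secondary, DRAQ5 stain) or AlphaLISA SureFire Ultra p-ERK1/2; 4-parameter sigmoidal fit gave IC50.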

KRAS G12C = KRAS G12C (Homo sapiens, UniProt P01116+P62937, G12C); assay: Disruption of BRAF RBD interaction with Ras (FRET / MOA assay, with Cyclophilin A); type: biochemical; conditions: KRAS G12C; read-out: KRAS G12C FRET data IC50
Chain of KRAS G12C (P01116 1-169 isoform P01116-2 G12C): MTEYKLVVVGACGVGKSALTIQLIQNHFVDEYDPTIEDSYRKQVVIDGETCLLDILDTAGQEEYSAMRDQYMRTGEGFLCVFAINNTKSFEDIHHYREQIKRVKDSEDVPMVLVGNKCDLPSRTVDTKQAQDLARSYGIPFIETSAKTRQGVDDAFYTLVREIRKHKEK
Chain of KRAS G12C (P62937 whole entry): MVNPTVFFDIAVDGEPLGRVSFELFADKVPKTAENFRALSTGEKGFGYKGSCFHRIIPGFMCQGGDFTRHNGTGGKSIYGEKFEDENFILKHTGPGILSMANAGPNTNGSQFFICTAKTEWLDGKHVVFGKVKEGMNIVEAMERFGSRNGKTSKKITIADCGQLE
In short: (§1)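 Cyclophilin A-dependent ternary complex assay. K-Ras loaded with nucleotide; BRAF RBD as effector. Cpd top 30 μM final, 3 h at 25 °C. Readout: TR-FRET ratio, IC50.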

KRAS G12D = KRAS G12D (Homo sapiens, UniProt P01116+P62937, G12D); assay: as above; type: biochemical; conditions: read-out: KRAS G12D FRET data, IC50
Chain of KRAS G12D (P01116 1-169 isoform P01116-2 G12D limits assumed): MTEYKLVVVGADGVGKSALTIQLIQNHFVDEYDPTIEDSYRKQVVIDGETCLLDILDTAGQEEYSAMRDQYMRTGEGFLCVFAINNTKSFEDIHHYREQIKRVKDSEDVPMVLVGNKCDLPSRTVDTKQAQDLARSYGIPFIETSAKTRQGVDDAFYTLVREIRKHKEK
Chain of KRAS G12D (P62937 whole entry): as the sequence (P62937 whole entry) above
In short: as §1

KRAS G12S = KRAS G12S (Homo sapiens, UniProt P01116+P62937, G12S); assay: as above; type: biochemical; conditions: read-out: KRAS G12S FRET data, IC50
Chain of KRAS G12S (P01116 1-169 isoform P01116-2 G12S limits assumed): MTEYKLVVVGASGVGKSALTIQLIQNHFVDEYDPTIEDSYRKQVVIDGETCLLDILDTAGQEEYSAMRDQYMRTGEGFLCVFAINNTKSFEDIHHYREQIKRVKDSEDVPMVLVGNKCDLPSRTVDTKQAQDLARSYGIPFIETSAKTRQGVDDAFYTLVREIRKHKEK
Chain of KRAS G12S (P62937 whole entry): as the sequence (P62937 whole entry) above
In short: as §1

KRAS G12V = KRAS G12V (Homo sapiens, UniProt P01116+P62937, G12V); assay: as above; type: biochemical; conditions: KRAS G12V; read-out: KRAS G12V FRET data IC50
Chain of KRAS G12V (P01116 1-169 isoform P01116-2 G12V limits assumed): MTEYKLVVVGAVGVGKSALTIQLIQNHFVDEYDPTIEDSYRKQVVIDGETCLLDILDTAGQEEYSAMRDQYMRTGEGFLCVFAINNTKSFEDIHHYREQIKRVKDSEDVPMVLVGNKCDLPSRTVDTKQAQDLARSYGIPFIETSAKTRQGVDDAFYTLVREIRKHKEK
Chain of KRAS G12V (P62937 whole entry): as the sequence (P62937 whole entry) above
In short: as §1

KRAS G13C = KRAS G13C (Homo sapiens, UniProt P01116+P62937, G13C); assay: as above; type: biochemical; conditions: KRAS G13C; read-out: KRAS G13C FRET data IC50
Chain of KRAS G13C (P01116 1-169 isoform P01116-2 G13C): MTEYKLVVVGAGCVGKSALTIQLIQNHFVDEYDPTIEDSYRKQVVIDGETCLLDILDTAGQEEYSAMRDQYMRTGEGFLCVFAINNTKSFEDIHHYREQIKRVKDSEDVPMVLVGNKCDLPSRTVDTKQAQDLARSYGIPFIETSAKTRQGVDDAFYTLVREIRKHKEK
Chain of KRAS G13C (P62937 whole entry): as the sequence (P62937 whole entry) above
In short: as §1

KRAS G13D = KRAS G13D (Homo sapiens, UniProt P01116+P62937, G13D); assay: as above; type: biochemical; conditions: KRAS G13D; read-out: KRAS G13D FRET data IC50
Chain of KRAS G13D (P01116 1-169 isoform P01116-2 G13D limits assumed): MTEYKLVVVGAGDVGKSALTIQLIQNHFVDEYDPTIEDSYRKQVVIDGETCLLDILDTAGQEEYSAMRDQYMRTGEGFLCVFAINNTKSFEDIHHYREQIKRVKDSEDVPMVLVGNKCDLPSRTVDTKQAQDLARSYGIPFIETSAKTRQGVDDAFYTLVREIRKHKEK
Chain of KRAS G13D (P62937 whole entry): as the sequence (P62937 whole entry) above
In short: as §1

KRAS WT = KRAS WT (Homo sapiens, UniProt P01116+P62937); assay: as above; type: biochemical; conditions: KRAS WT; read-out: KRAS WT FRET data IC50
Chain of KRAS WT (P01116 1-169 isoform P01116-2 limits assumed): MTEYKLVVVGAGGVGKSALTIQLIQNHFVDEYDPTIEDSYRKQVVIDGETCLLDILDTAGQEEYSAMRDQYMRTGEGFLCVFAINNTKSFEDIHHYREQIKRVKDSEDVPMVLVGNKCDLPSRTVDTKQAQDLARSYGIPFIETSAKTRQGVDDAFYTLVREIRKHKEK
Chain of KRAS WT (P62937 whole entry): as the sequence (P62937 whole entry) above
In short: as §1

NRAS G12C = NRAS G12C (Homo sapiens, UniProt P01111+P62937, G12C); assay: as above; type: biochemical; conditions: NRAS G12C; read-out: NRAS G12C FRET data IC50
Chain of NRAS G12C (P01111 whole entry G12C): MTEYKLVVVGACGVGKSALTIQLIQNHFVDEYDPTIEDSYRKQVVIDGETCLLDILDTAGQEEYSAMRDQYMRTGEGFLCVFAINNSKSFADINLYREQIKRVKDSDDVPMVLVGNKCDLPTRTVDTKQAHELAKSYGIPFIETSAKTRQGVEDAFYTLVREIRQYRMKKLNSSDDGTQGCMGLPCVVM
Chain of NRAS G12C (P62937 whole entry): as the sequence (P62937 whole entry) above

Compound | EC50 [1] | IC50 (KRAS G12C) | IC50 (KRAS G12D) | IC50 (KRAS G12S) | IC50 (KRAS G12V) | IC50 (KRAS G13C) | IC50 (KRAS G13D) | IC50 (KRAS WT) | IC50 (NRAS G12C)
CCn1c(-c2cccnc2[C@H](C)OC)c2c3cc(ccc31)-c1cccc(c1)C[C@H](NC(=O)[C@@H](COC1CN(C(=O)C#C[C@@H]3COCCN3C)C1)C(C)C)C(=O)N1CCC[C@H](N1)C(=O)OCC(C)(C)C2 (atropisomer, axis not shown) [Example A648] | < 5 µM | 0.1 to 1 µM | > 10 µM | > 10 µM | > 10 µM | 1 to 10 µM | > 10 µM | 1 to 10 µM | 0.1 to 1 µM
CCn1c(-c2cccnc2[C@H](C)OC)c2c3cc(ccc31)-c1csc(n1)C[C@H](NC(=O)[C@H](C(C)C)N(C)C(=O)N1CC(N(C)C(=O)C#CC(C)(C)N3CCC3)C1)C(=O)N1CCC[C@H](N1)C(=O)OCC(C)(C)C2 [Example A379] | < 5 µM | < 0.01 µM | 1 to 10 µM | 0.1 to 1 µM | 0.1 to 1 µM | 0.01 to 0.1 µM | 0.1 to 1 µM | 0.1 to 1 µM | 0.01 to 0.1 µM
C=CC(=O)N1CC[C@H](C(=O)N(C)[C@H](C(=O)N[C@H]2Cc3cc(O)cc(c3)-c3ccc4c(c3)c(c(-c3ccnc5c3[C@@H](OC)CC5)n4CC)CC(C)(C)COC(=O)[C@@H]3CCCN(N3)C2=O)C(C)C)C1 [Example A275] | < 5 µM | 0.01 to 0.1 µM | 0.1 to 1 µM | 0.01 to 0.1 µM | 0.01 to 0.1 µM | 0.01 to 0.1 µM | 0.1 to 1 µM | 0.1 to 1 µM | 0.01 to 0.1 µM
C=CC(=O)N1CCOC2(CCN(C(=O)N(C)[C@H](C(=O)N[C@H]3CN4CCC=C(C4)c4ccc5c(c4)c(c(-c4cccnc4[C@H](C)OC)n5CC)CC(C)(C)COC(=O)[C@@H]4CCCN(N4)C3=O)C(C)C)CC2)C1 [Example A563] | < 5 µM | 0.1 to 1 µM | > 10 µM | 1 to 10 µM | 1 to 10 µM | 0.1 to 1 µM | 1 to 10 µM | 1 to 10 µM | 0.1 to 1 µM

More lines, now with the values ahead:

EC50 [1] | IC50 (KRAS G12C) | IC50 (KRAS G12D) | IC50 (KRAS G12S) | IC50 (KRAS G12V) | IC50 (KRAS G13C) | IC50 (KRAS G13D) | IC50 (KRAS WT) | IC50 (NRAS G12C) | Compound
< 5 µM | 0.1 to 1 µM | 1 to 10 µM | 0.1 to 1 µM | 0.1 to 1 µM | 0.01 to 0.1 µM | 0.1 to 1 µM | 0.1 to 1 µM | 0.1 to 1 µM | C=CC(=O)N1CCOC2(CCN(C(=O)N(C)[C@H](C(=O)N[C@H]3Cc4nc(n(C)n4)-c4ccc5c(c4)c(c(-c4cccnc4[C@H](C)OC)n5CC(F)(F)F)CC(C)(C)COC(=O)C4CCCN(N4)C3=O)C(C)C)CC2)C1 (stereo partly drawn) [Example A606]
< 5 µM | 0.1 to 1 µM | > 10 µM | 1 to 10 µM | 1 to 10 µM | 0.1 to 1 µM | 1 to 10 µM | 1 to 10 µM | 0.1 to 1 µM | C=CC(=O)N1CC(OC[C@H](C(=O)N[C@H]2Cc3cc(F)cc(c3)-c3ccc4c(c3)c(c(-c3cccnc3[C@H](C)OC)n4CC)CC(C)(C)COC(=O)[C@@H]3CCCN(N3)C2=O)C(C)C)C1 (atropisomer, axis not shown) [Example A725]
< 5 µM | 0.1 to 1 µM | > 10 µM | 1 to 10 µM | 1 to 10 µM | 1 to 10 µM | > 10 µM | > 10 µM | 0.1 to 1 µM | CCn1c(-c2cccnc2[C@H](C)OC)c2c3cc(ccc31)-c1cccc(c1)C[C@H](NC(=O)[C@H](C(C)C)N1CC[C@]3(CCN(C(=O)C#C[C@@H]4COCCN4C4COC4)C3)C1=O)C(=O)N1CCC[C@H](N1)C(=O)OCC(C)(C)C2 [Example A565]
< 5 µM | 0.1 to 1 µM | > 10 µM | 1 to 10 µM | 1 to 10 µM | 0.1 to 1 µM | 1 to 10 µM | 1 to 10 µM | 0.1 to 1 µM | C=CC(=O)N1CC[C@]2(C1)OCN(C(=O)N(C)[C@H](C(=O)N[C@H]1Cc3cccc(n3)-c3ccc4c(c3)c(c(-c3cccnc3[C@H](C)OC)n4CC)CC(C)(C)COC(=O)[C@@H]3CCCN(N3)C1=O)C(C)C)C2=O (atropisomer, axis not shown) [Example A652]
